According to patent US8129415B2:

Experiment: logP by HPLC on reversed-phase column (C 18), EEC Directive 79/831 Annex V.A8
Format: physicochemical
Conditions: not given

SMILES	chromatographic logP
Cc1nnnn1/C(=N/OCc1csc(NC(=O)C(C)(C)C)n1)c1ccc(Cl)nc1 [compound 31]	2.9
Cc1cccc(/C(=N\OCc2cccc(N)n2)n2nnnc2C)n1 [compound 87, O-(2-Aminopyridin-6-yl)methyl-(6-methylpyridin-2-yl)-(5-methyltetrazol-1-yl)methanone oxime]	1.18
CCCCCC(=O)Nc1cccc(CO/N=C(\c2cccc(C)n2)n2nnnc2C)n1 [compound 92, O-[2-(Pentylcarbonylamino)pyridin-6-yl]methyl-(6-methylpyridin-2-yl)-(5-methyltetrazol-1-yl)methanone Oxime]	3.43
Cc1cccnc1/C(=N\OCc1csc(N)n1)c1nnnn1C [compound 157, O-(2-Amino-1,3-thiazol-4-yl)methyl-(3-methylpyridin-2-yl)-(1-methyltetrazol-5-yl)methanone Oxime]	1.04
CCCCCC(=O)Nc1nc(CO/N=C(\c2ncccc2C)c2nnnn2C)cs1 [compound 158, O-(2-Pentylcarbonylmino-1,3-thiazol-4-yl)methyl-(3-methylpyridin-2-yl)-(1-methyltetrazol-5-yl)methanone oxime]	2.94

Same assay, conditions: HPLC reversed-phase C 18, 40° C., 0.1% aqueous formic acid and acetonitrile gradient

SMILES	LogP
Cc1nnnn1C(=NOCc1csc(N)n1)c1ccccn1 [compound 1]	0.83
C=C(C)C(=O)Nc1nc(CON=C(c2ccccn2)n2nnnc2C)cs1 [compound 3]	2.06
CCCCCC(=O)Nc1nc(CON=C(c2ccccn2)n2nnnc2C)cs1 [compound 4]	2.7
Cc1nnnn1C(=NOCc1nonc1N)c1ccccn1 [compound 6]	1.52
Cc1nc(CON=C(c2ccccn2)n2nnnc2C)cs1 [compound 7]	1.76
Cc1nnnn1C(=NOCc1cccc(N)n1)c1ccccn1 [compound 9]	0.76
Cc1nnnn1C(=NOCc1noc(-c2ccco2)n1)c1ccccn1 [compound 11]	2.38
Cc1nnnn1C(=NOCc1csc(NC(=O)C2CC2)n1)c1ccccn1 [compound 14]	1.99
Cc1nnnn1C(=NOCc1csc(NC(=O)NCc2ccccc2)n1)c1ccccn1 [compound 15]	2.15
CCCNC(=O)Nc1nc(CON=C(c2ccccn2)n2nnnc2C)cs1 [compound 19]	1.95
Cc1nnnn1C(=NOCc1nsc(N)n1)c1ccccn1 [compound 21]	1.3
COc1ccc(CCNC(=O)Nc2nc(CON=C(c3ccccn3)n3nnnc3C)cs2)cc1 [compound 22]	2.44
Cc1nnnn1C(=NOCc1csc(NC(=O)NCCc2cccc(Cl)c2)n1)c1ccccn1 [compound 24]	2.79
Cc1nnnn1C(=NOCc1csc(NC(=O)NC2CC2)n1)c1ccccn1 [compound 26]	1.61
Cc1nnnn1C(=NOCc1csc(NC(=O)NC(C)(C)C)n1)c1ccccn1 [compound 28]	2.16
Cc1nnnn1C(=NOCc1csc(NC(=O)C2CCCCC2)n1)c1ccc(Cl)nc1 [compound 32]	3.16
Cc1nnnn1C(=NOCc1nonc1N)c1ccc(Cl)nc1 [compound 33]	1.88
Cc1nnnn1C(=NOCc1csc(N)n1)c1ccc(Cl)nc1 [compound 34]	1.27
Cc1nnnn1C(=NOCc1csc(NC(=O)c2ccccc2)n1)c1ccc(Cl)nc1 [compound 36]	2.87
Cc1nnnn1C(=NOCc1csc(NC(=O)C2CC2)n1)c1ccc(Cl)nc1 [compound 39]	2.36

SMILES	LogP
Cc1nc(CON=C(c2ccc(Cl)nc2)n2nnnc2C)cs1 [compound 40]	2.33
Cc1nnnn1C(=NOCc1nsc(N)n1)c1ccc(Cl)nc1 [compound 44]	1.78
Cc1nnnn1C(=NOCc1csc(NC(=O)NC2CC2)n1)c1ccc(Cl)nc1 [compound 48]	1.98
Cc1nnnn1C(=NOCc1nc(Cc2ccccc2)no1)c1ccc(Cl)nc1 [compound 49]	3.09
Cc1nnnn1C(=NOCc1noc(-c2ccc(C(C)(C)C)cc2)n1)c1ccc(Cl)nc1 [compound 50]	4.47
COc1ccc(C(=O)Nc2nc(CON=C(c3ccc(Cl)nc3)n3nnnc3C)cs2)cc1 [compound 57]	2.97
Cc1nnnn1C(=NOCc1csc(NC(=O)C2CCCC2)n1)c1ccc(Cl)nc1 [compound 58]	2.97
Cc1nnnn1C(=NOCc1csc(NC(=O)c2cccs2)n1)c1ccc(Cl)nc1 [compound 59]	2.82
Cc1nnnn1C(=NOCc1csc(NC(=O)c2ccco2)n1)c1ccc(Cl)nc1 [compound 69]	2.46
COCCC(=O)Nc1nonc1CON=C(c1ccc(Cl)nc1)n1nnnc1C [compound 72]	2.17
Cc1ccc(OC(=O)Nc2nc(CON=C(c3ccc(Cl)nc3)n3nnnc3C)cs2)cc1 [compound 76]	3.48
COCCOCC(=O)Nc1nc(CON=C(c2ccc(Cl)nc2)n2nnnc2C)cs1 [compound 78]	2.4
Cc1cccc(C(=NOCc2csc(N)n2)n2nnnc2C)n1 [compound 80]	1.2
CCCC(=O)Nc1nc(CON=C(c2cccc(C)n2)n2nnnc2C)cs1 [compound 82]	2.38
Cc1cccc(C(=NOCc2csc(NC(=O)c3ccccc3)n2)n2nnnc2C)n1 [compound 83]	2.78
Cc1cccc(C(=NOCc2nonc2N)n2nnnc2C)n1 [compound 84]	1.94
Cc1cccc(C(=NOCc2noc(-c3cccc(C(F)(F)F)c3)n2)n2nnnc2C)n1 [compound 86]	3.67
CCCC(=O)Nc1cccc(CON=C(c2cccc(C)n2)n2nnnc2C)n1 [compound 90]	2.7
Cc1cccc(C(=NOCc2noc(-c3ccc(C(C)(C)C)cc3)n2)n2nnnc2C)n1 [compound 93]	4.5
Cc1cccc(C(=NOCc2noc(-c3ccccc3)n2)n2nnnc2C)n1 [compound 95]	3.11

SMILES	LogP
Cc1cccc(C(=NOCc2nsc(N)n2)n2nnnc2C)n1 [compound 96]	1.59
C=C(C)C(=O)Nc1nc(CON=C(c2cccc(C)n2)n2nnnc2C)cs1 [compound 97]	2.4
COC(=O)c1coc(CON=C(c2cccc(C)n2)n2nnnc2C)n1 [compound 98]	2.01
Cc1cccc(C(=NOCc2csc(NC(=O)NCCc3ccc(Cl)c(Cl)c3)n2)n2nnnc2C)n1 [compound 102]	3.34
CCCNC(=O)Nc1nc(CON=C(c2cccc(C)n2)n2nnnc2C)cs1 [compound 103]	2.17
COc1cccc(CNC(=O)Nc2nc(CON=C(c3cccc(C)n3)n3nnnc3C)cs2)c1 [compound 104]	2.59
Cc1cccc(C(=NOCc2csc(NC(=O)NCCc3ccc(F)cc3)n2)n2nnnc2C)n1 [compound 105]	2.78
Cc1cccc(C(=NOCc2csc(NC(=O)NCCc3ccc(Cl)cc3Cl)n2)n2nnnc2C)n1 [compound 106]	3.43
Cc1cccc(C(=NOCc2csc(NC(=O)NCCc3ccccc3)n2)n2nnnc2C)n1 [compound 107]	2.72
COc1ccccc1CNC(=O)Nc1nc(CON=C(c2cccc(C)n2)n2nnnc2C)cs1 [compound 108]	2.69
CCCCCC(=O)Nc1nc(CON=C(c2cnccc2OC)n2nnnc2C)cs1 [compound 136]	3.44
COc1ccncc1C(=NOCc1csc(NC(=O)c2ccccc2)n1)n1nnnc1C [compound 137]	3.13
COCCC(=O)Nc1nc(CON=C(c2cnccc2OC)n2nnnc2C)cs1 [compound 138]	2.25
COc1ccncc1C(=NOCc1csc(NC(=O)CCc2ccccc2)n1)n1nnnc1C [compound 139]	3.31
CCCCCCCCOC(=O)Nc1nc(CON=C(c2cnccc2OC)n2nnnc2C)cs1 [compound 147]	5.03
COc1ncccc1C(=NOCc1cccc(N)n1)n1nnnc1C [compound 152]	1.03
COc1ncccc1C(=NOCc1nc(N)sc1Br)n1nnnc1C [compound 153]	2.27
COc1ncccc1C(=NOCc1csc(N)n1)n1nnnc1C [compound 154]	1.24
Cc1cccnc1C(=NOCc1csc(NC(=O)Cc2ccccc2)n1)c1nnnn1C [compound 159]	2.62
